Active and inactive are the calls of the source. How the calls were made is not given here.
Target: Serine/threonine-protein kinase mTOR (Homo sapiens) (UniProt P42345)
Assay: binders of mTOR FRB domain, biophysical, NMR (AID 1648)
Conditions: NMR binding to FRB domain, chemical shift

Chain of Serine/threonine-protein kinase mTOR (Homo sapiens) (P42345 2015-2114): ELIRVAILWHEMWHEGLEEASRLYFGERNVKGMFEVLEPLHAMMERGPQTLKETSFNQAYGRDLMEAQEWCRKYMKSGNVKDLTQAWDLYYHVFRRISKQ

| SMILES | Kd |
| --- | --- |
| N=C1/C(=C\c2ccco2)C(=O)N=C2SC=NN12 | > 4 mM (inactive) |
| NC(=O)CCS(=O)(=O)CCN1CCOCC1 | > 4 mM (inactive) |
| NC(=O)c1ccc(N2C(=O)CCC2=O)cc1Cl | > 4 mM (inactive) |
| O=C(Nc1ccc(Cl)cn1)c1cnn2cccnc12 | > 4 mM (inactive) |
| CC1=C2[C@H]3OC(=O)[C@@H](C)[C@@H]3CC[C@@]2(C)C=CC1=O | > 4 mM (inactive) |
| CN1CCC(O)N1C(=O)c1ccccc1O (stereo not given) | > 4 mM (inactive) |
| O=C1CC(=O)N(c2ccccc2)c2ccccc21 | > 4 mM (inactive) |
| Cc1ccc(C(=O)Nn2cnnc2)c(Cl)c1 | > 4 mM (inactive) |
| O=C(Nc1ccccc1)c1cccc(N2C(=O)CCC2=O)c1 | > 4 mM (inactive) |
| NCc1ccc(-n2cccn2)cc1 | > 4 mM (inactive) |
| CCOC(=O)c1c(C)nc2c(C#N)cnn2c1C | > 4 mM (inactive) |
| CSc1nnc(-c2ccccc2NC(C)=O)o1 | > 4 mM (inactive) |
| CN1CCn2c1nc(N1CCCCC1)nc2=O | > 4 mM (inactive) |
| c1ccc(-n2ncc3c(NCc4ccco4)ncnc32)cc1 | > 4 mM (inactive) |
| O=C(NCc1ccccn1)c1ccc(Cl)cc1Cl | > 4 mM (inactive) |
| COc1ccccc1-c1noc(-c2ccncc2)n1 | > 4 mM (inactive) |
| C=C[C@H]1CN2CC[C@H]1C[C@@H]2[C@H](O)c1ccnc2ccccc12 | > 4 mM (inactive) |
| CC(=O)Nc1ccc(S(=O)(=O)NC(N)=O)cc1 | > 4 mM (inactive) |
| c1ccc(CCNc2ncnc3nc[nH]c23)cc1 | > 4 mM (inactive) |
| Cc1nn(C)c(N2CCOCC2)c1N | > 4 mM (inactive) |
| CC(CC(O)C1OC1(C)C)[C@@H]1CCC2(C)C3=CCC4C(C)(C)C(=O)CCC4(C)C3CC[C@@]12C (stereo not given in full) | > 4 mM (inactive) |
| Cc1occc1C(=O)Nc1ccc2c(c1)OCO2 | > 4 mM (inactive) |
| O=C(NN1C(=O)c2ccccc2C1=O)c1cccs1 | > 4 mM (inactive) |

| SMILES | Kd |
| --- | --- |
| CCOC(=O)C(C)c1n[nH]c(=O)c2ccccc12 (stereo not given) | > 4 mM (inactive) |
| NC(=O)C1CCN(C2CC(=O)NC2=O)CC1 (stereo not given) | > 4 mM (inactive) |
| COCC(=O)N1CCCc2ccccc21 | > 4 mM (inactive) |
| O=C(/C=C/c1ccc(O)c(O)c1)O[C@@H]1C[C@](O)(C(=O)O)C[C@@H](O)[C@H]1O | > 4 mM (inactive) |
| COc1ccc(/C=C2\NC(=S)N(C)C2=O)cc1O | > 4 mM (inactive) |
| OCC1=Cc2ccccc2OC1 | > 4 mM (inactive) |
| CCCN1CCC(N2CCC(O)CC2)CC1 | > 4 mM (inactive) |
| COc1cccc(NC(=O)c2cnn(C)c2Cl)c1 | > 4 mM (inactive) |
| C#CCCCCCCCCCCCC(O)CC(O)COC(C)=O (stereo not given) | > 4 mM (inactive) |
| OCC1CCN(Cc2ccccc2)CC1 | > 4 mM (inactive) |
| CC1(C)CC(NC(=O)/C=C/C(=O)O)CC(C)(C)N1 | > 4 mM (inactive) |
| COc1cccc(S(=O)(=O)Nc2cccnc2)c1 | > 4 mM (inactive) |
| Cn1cnc([N+](=O)[O-])c1Sc1ncnc2nc[nH]c12 | > 4 mM (inactive) |
| COc1ccc(-c2cc(=O)c3c(OC(C)=O)cc(OC(C)=O)cc3o2)cc1 | > 4 mM (inactive) |
| CC(=O)O[C@H]1CC[C@@]2(C)C(CC[C@]3(C)C2CC=C2C4CC(C)(C)CC[C@]4(C)CC[C@]23C)C1(C)C (stereo not given in full) | > 4 mM (inactive) |
| COc1ccc(C2NC(C(=O)O)CS2)cc1 (stereo not given) | > 4 mM (inactive) |
| COc1c(O)cc2c(c1O)[C@H]1O[C@H](CO)[C@@H](O)[C@H](O)[C@@H]1OC2=O | > 4 mM (inactive) |
| COC(=O)C[C@H]1C(C)(C)C(=O)[C@@H]2CC3=C(CC[C@]4(C)C3=CC(=O)O[C@H]4c3ccoc3)C1(C)C2=O | > 4 mM (inactive) |
| COc1cc(/C=C/C(=O)O)ccc1O | > 4 mM (inactive) |
| COc1ccc(C(=O)CC(=O)O)c2c1C=CC(C)(C)O2 | > 4 mM (inactive) |
| Cc1nc2ccccc2c2c1C(=O)N(N)C2=O | > 4 mM (inactive) |
| CCCc1cc(=O)[nH]c2nnc(SCC(C)=O)n12 | > 4 mM (inactive) |
| c1ccc(CSc2ncccn2)cc1 | > 4 mM (inactive) |

| SMILES | Kd |
| --- | --- |
| CP(C)(=O)CCC(=O)O | > 4 mM (inactive) |
| CN(Cc1nc2ccccc2n1C)C(=O)c1cccs1 | > 4 mM (inactive) |
| Cc1cc(O)cc(O)c1C(=O)O | > 4 mM (inactive) |
| CSc1nn(-c2ccccc2)c(N)c1C#N | > 4 mM (inactive) |
| CSc1nnnn1-c1cccc(O)c1 | > 4 mM (inactive) |
| COc1ccc2ccc(=O)oc2c1 | > 4 mM (inactive) |
| C[C@H]1[C@H](C)CC[C@]2(C(=O)O)CC[C@]3(C)C(=CCC4[C@@]5(C)C[C@@H](O)[C@H](O)[C@@](C)(CO)C5[C@H](O)C[C@]43C)[C@H]12 (stereo not given in full) | > 4 mM (inactive) |
| NCc1ccccc1N1CCCCC1 | > 4 mM (inactive) |
| O=C1NC(=O)C(Cc2cccs2)C(=O)N1 | > 4 mM (inactive) |
| Cc1cc(C)n(-c2nc(C)nc(N)n2)n1 | > 4 mM (inactive) |
| COC(=O)c1cccnc1Oc1ccccc1 | > 4 mM (inactive) |
| Cc1nc2ccccc2c(=O)n1-c1cccc(O)c1 | > 4 mM (inactive) |
| CC(=O)Nc1ccc(S(=O)(=O)NCC2CCCO2)cc1 (stereo not given) | > 4 mM (inactive) |
| CCn1nnc(NC(=O)c2ccccc2Br)n1 | > 4 mM (inactive) |
| Nc1cc(C(F)(F)F)ccc1N1CCOCC1 | > 4 mM (inactive) |
| Cn1cc(Cl)c(C(=O)NC2CCCC2)n1 | > 4 mM (inactive) |
| c1ccc(Cc2nnc3sc(-c4cccnc4)nn23)cc1 | > 4 mM (inactive) |
| O=C(O)CCCCC1SCC2NC(=O)NC21 (stereo not given) | > 4 mM (inactive) |
| CCN(CC)C(=O)c1n[nH]c(=O)c2ccccc12 | > 4 mM (inactive) |
| O=C(NC(=S)NCCO)c1ccccc1 | > 4 mM (inactive) |
| COc1ccc(S(=O)(=O)Nc2ccccn2)c(C)c1C | > 4 mM (inactive) |
| Cc1cc(C(=O)N2CCN(c3ccccn3)CC2)c(C)o1 | > 4 mM (inactive) |
| Nc1nnc(SCc2ccc3c(c2)OCO3)s1 | > 4 mM (inactive) |

| SMILES | Kd |
| --- | --- |
| O=C1CCC(=O)N1c1cccc([N+](=O)[O-])c1 | > 4 mM (inactive) |
| C=C1C2CC[C@@]3(C)[C@H](c4ccoc4)OC(=O)C[C@]13O[C@H]1CC(O)C(C)(C)C(CC(=O)OC)[C@@]21C (stereo not given in full) | > 4 mM (inactive) |
| Cc1c(/C=N/O)cnn1C | > 4 mM (inactive) |
| O=c1[nH]cc(NC(=S)N2CCOCC2)c(=O)[nH]1 | > 4 mM (inactive) |
| CC(=O)OCC(=O)[C@@]1(O)CCC2C3CC[C@@H]4C[C@H](O)CC[C@]4(C)C3C(=O)C[C@@]21C (stereo not given in full) | > 4 mM (inactive) |
| NC1CN2CCC1CC2 (stereo not given) | > 4 mM (inactive) |
| CC(=O)NC(=S)Nc1ccc(N(C)C(C)=O)cc1 | > 4 mM (inactive) |
| O=[N+]([O-])c1cccc(-c2nnco2)c1 | > 4 mM (inactive) |
| Cc1cc(N2CCN(C)CC2)ncn1 | > 4 mM (inactive) |
| CC(=O)C1CCC2C3CCC4C[C@H](O)CCC4(C)C3C[C@H](O)C12C (stereo not given in full) | > 4 mM (inactive) |
| S=C(NC1=NCCS1)Nc1ccccc1 | > 4 mM (inactive) |
| O=c1[nH]nc(Cc2ccncc2)c2ccccc12 | > 4 mM (inactive) |
| O=c1[nH]c2sc3c(c2c2ncnn12)CCCC3 | > 4 mM (inactive) |
| O=C(Nc1ccccc1)C(=O)NC1CC1 | > 4 mM (inactive) |
| Nc1ccc(S(=O)(=O)Nc2nccs2)cc1 | > 4 mM (inactive) |
| Cc1nc(SCC#N)c2c3c(sc2n1)CCC3 | > 4 mM (inactive) |
| NC(=O)CSc1nnc2ccc(-c3ccco3)nn12 | > 4 mM (inactive) |
| COc1cc([C@@H]2c3cc4c(cc3[C@H](O)[C@H]3COC(=O)[C@@H]23)OCO4)cc(OC)c1OC | > 4 mM (inactive) |
| CC(=O)NC(C)C12CC3CC(CC(C(=O)O)(C3)C1)C2 (stereo not given) | > 4 mM (inactive) |
| NCc1ccc(-c2cccs2)cc1 | > 4 mM (inactive) |
| CC1CCN(C(=O)c2ccc(NS(C)(=O)=O)cc2)CC1 | > 4 mM (inactive) |
| O=C(NCc1cccs1)c1ccncc1 | > 4 mM (inactive) |
| COc1ccccc1NC(=O)c1ccc(C)s1 | > 4 mM (inactive) |

| SMILES | Kd |
| --- | --- |
| CNC(Cc1c[nH]c2ccccc12)C(=O)O (stereo not given) | > 4 mM (inactive) |
| O=C(O)c1ccc2c(c1)OCO2 | > 4 mM (inactive) |
| O=C1NC(=S)S/C1=C/c1ccncc1 | > 4 mM (inactive) |
| CCc1c(C(=O)Nc2ccncc2)csc1C | > 4 mM (inactive) |
| O=C(/C=C1\SC(=O)NC1=O)NCc1ccccc1 | > 4 mM (inactive) |
| Cn1ccc(NC(=S)NC2CCCC2)n1 | > 4 mM (inactive) |
| Nc1c(S(=O)(=O)c2ccccc2)csc1C(=O)O | > 4 mM (inactive) |
| O=C(c1nc2ncccn2n1)N1CCc2ccccc2C1 | > 4 mM (inactive) |
| Cc1nnc(SCC(=O)N2CCCCC2)s1 | > 4 mM (inactive) |
| OC(CCl)c1ccc(-n2cncn2)cc1 (stereo not given) | > 4 mM (inactive) |
| O=C(c1cnsn1)N1CCN(c2ccccn2)CC1 | > 4 mM (inactive) |
| CC(=O)O[C@H]1C(=O)[C@@]2(C)C([C@H](OC(=O)c3ccccc3)[C@]3(O)C[C@H](OC(=O)[C@H](O)[C@@H](NC(=O)c4ccccc4)c4ccccc4)C(C)=C1C3(C)C)[C@]1(OC(C)=O)CO[C@@H]1C[C@@H]2O (stereo not given in full) | > 4 mM (inactive) |
| Cc1ccc(=O)[nH]c1 | > 4 mM (inactive) |
| C[C@@H]1C(=O)O[C@H]2[C@H]1CC[C@@]1(C)C=CC(=O)[C@@]3(C)O[C@@]213 | > 4 mM (inactive) |
| COCC(=O)Nc1ccc(C)c(Cl)c1 | > 4 mM (inactive) |
| COc1ccc(/C=C2/N=C(N)SC2=O)cc1 | > 4 mM (inactive) |
| O=c1c2ccccc2nc(-c2ccco2)n1-c1nccs1 | > 4 mM (inactive) |
| Cc1noc(C)c1C(=O)N1CCc2ccccc21 | > 4 mM (inactive) |
| CC(=O)c1c(O)n(C)c(=S)n(C)c1=O | > 4 mM (inactive) |
| Cc1c(C(=O)Nc2ccncc2)oc2c1C(=O)CC(C)(C)C2 | > 4 mM (inactive) |
| Cc1nc2ccc(NC(=O)N3CCSCC3)cc2s1 | > 4 mM (inactive) |
| Cc1ccc(NC(=O)C2CCCNC2=O)nc1 (stereo not given) | > 4 mM (inactive) |
| OC[C@H]1O[C@@H](n2cnc3c(NCc4ccco4)ncnc32)[C@H](O)[C@@H]1O | > 4 mM (inactive) |

From PubChem BioAssay AID1648 (Sanford-Burnham Center for Chemical Genomics, 2009)
